From US8686115B2, “Compositions and methods for quantitatively monitoring lipids” (The Board of Trustees of the University of Illinois, priority 2009, dated 2014)

Assays:
[1] = target: T1, DAN-eENTH: epsin 1 ENTH domain variant M10C/C96A/S4W, SEQ ID NO: 2, labeled with DAN at C10 (Homo sapiens, UniProt Q9Y6I3, C96A/M10C/S4W); test: SPR equilibrium binding of DAN-eENTH to phosphoinositide-containing LUVs
T1 construct: The Epsin1 ENTH domain (1-158 amino acids) was subcloned; GST (C, cleaved yes); made in house; host or cells: E. coli BL21 RIL codon plus
T1 sequence (Q9Y6I3 1-158 S4W/M10C/C96A): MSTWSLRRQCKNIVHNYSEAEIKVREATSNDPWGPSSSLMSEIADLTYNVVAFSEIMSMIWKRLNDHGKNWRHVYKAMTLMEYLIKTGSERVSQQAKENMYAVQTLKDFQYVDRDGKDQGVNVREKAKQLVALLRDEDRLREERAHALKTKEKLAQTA
Description: Provided herein is an ENTH domain of epsin1, which is linked to 2-dimethylamino-6-acyl-naphthalene (DAN). The ENTH domain contains 3 mutations, which are substitutions: M10C, C96A, and S4W. See SEQ ID NO:2. This DAN-eENTH (M10C, C96A, S4W) is an exceptional, high-affinity phosphatidylinositol-4,5-bisphosphate (PtdIns(4,5)P2)-binding protein.
(§1) The ENTH domain was engineered to introduce a single labeling site (M10C) on the membrane binding surface while removing an endogenous Cys (C96A). We also performed the S4W mutation to suppress its residual affinity for another lipid, phosphatidylinositol-3,4,5-trisphosphate (PtdIns(3,4,5)P3) (PtdIns(4,5)P2/PtdIns(3,4,5)P3=4 for wild type and >10 for the mutant) and to enhance the overall affinity for PtdIns(4,5)P2-containing membranes (ca. 4-fold) (Table 1).
(§2) With respect to FIG. 1, an L1 sensor chip was coated with POPC/POPS/PtdIns(4,5)P2 (77:20:3) LUVs. The proteins were incubated with a given concentration of IP3 for 5 minutes before injecting into the SPR instrument. Kinetic SPR measurements were performed in 20 mM Tris-HCL, pH 7.4, containing 0.16 KCl. […] A lower concentration of DAN-eENTH was used than that of PLCδ PH because the former has much higher affinity that the latter.
All mutations (S4W, M10C, and C96A) were performed by polymerase chain reaction mutagenesis and verified by DNA sequencing. eENTH may comprise the following sequence:
E. coli BL21 RIL codon plus (Stratagene) cells were used for protein expression. Cells were grown in Luria broth media containing 100 μg/ml of ampicillin at 37° C. 0.1 mM of Isopropyl β-D-1-thiogalactopyranoside was added to induce over-expression of recombinant proteins when the OD600 reached 0.5-0.8 and cells were grown for additional 6 to 10 hours at 25° C. Cells were harvested by centrifugation and cell pellets were resuspended in 50 mM Tris-HCl buffer (pH 7.4) containing 160 mM KCl, 1 mM phenylmethanesulphonylfluoride, and 5 mM of dithiothreitol (DTT). Cells were lysed by sonication and the lysate was collected by centrifugation at 4° C. The GST-affinity resin (GenScript) for GST-tagged proteins or nickel-nitrilotriacetic acid resin (Qiagen, Valencia, Calif.) for His6-tagged proteins was added into the cell lysate and the mixture was gently shaken for 30 minutes at 4° C. The mixture was applied to a column and the column was washed once with 50 mM Tris-HCl buffer (pH 7.4) containing 160 mM KCl and 5 mM of DTT to reduce thiol group, and washed several times with the same buffer without DTT to remove DTT. For DAN labeling, 100 μg of acrylodan was added to the column at this stage and incubated 16 hours at 4° C. The excess acrylodan was removed by washing the column with the buffer several times. Thrombin (Invitrogen) was added to column to remove the GST tag and the mixture was incubated at 4° C. for 10 hours. The labeled protein was eluted from the column by and the collected fractions were applied to ion exchange column. Purity and the concentration of the recombinant proteins were determined by sodium dodecylsulfate-polyacrylamide gel electrophoresis and bicinchoninic acid assay, respectively. The DAN labeling yield of eENTH, which was calculated as the molar ratio of DAN (determined spectrophotometrically at 391 nm using its extinction coefficient of 20,000 cm^−1 M^−1) to protein, was typically 60-70%.
LUVs were prepared by extrusion using a 100 nm-pore membrane. GUVs were prepared by electroformation. […]

[2] = target: T2, epsin 1 ENTH domain (SEQ ID NO: 1) variant C96A/S4W (eENTH; SEQ ID NO: 2) (Homo sapiens, UniProt Q9Y6I3, C96A/M10C/S4W); test: SPR equilibrium binding of epsin1 ENTH C96A/S4W (eENTH) to phosphoinositide-containing LUVs; conditions: S4W mutant
T2 construct: The Epsin1 ENTH domain (1-158 amino acids) was subcloned; GST (C, cleaved yes); made in house; host or cells: E. coli BL21 RIL codon plus
T2 sequence (Q9Y6I3 1-158 S4W/M10C/C96A): T1 sequence (Q9Y6I3 1-158 S4W/M10C/C96A)
Description: as §1
as §2, with “latter. […]” for “latter.”
(§3) E. coli BL21 RIL codon plus (Stratagene) cells were used for protein expression. […] Purity and the concentration of the recombinant proteins were determined by sodium dodecylsulfate-polyacrylamide gel electrophoresis and bicinchoninic acid assay, respectively. The DAN labeling yield of eENTH, which was calculated as the molar ratio of DAN (determined spectrophotometrically at 391 nm using its extinction coefficient of 20,000 cm^−1 M^−1) to protein, was typically 60-70%. […]

[3] = test system: epsin 1 ENTH domain (SEQ ID NO: 1) variant C96A/S4W (eENTH; SEQ ID NO: 2); test: as above; conditions: S4W mutation, Table 1
Description: as §1
as §2, with “latter. […]” for “latter.”
as §3

PLCδ-PH (PLCδ PH domain) = target: T3, PLCδ-PH (PLCδ PH domain) (Homo sapiens, UniProt P51178); test: SPR equilibrium binding of PLCδ-PH to phosphoinositide-containing LUVs; conditions: POPC/POPS/PtdIns(4,5)P2 (77:20:3) LUVs, 20 mM Tris-HCl pH 7.4, 0.16 M KCl, read-out: Kd for PtdIns(4,5)P2
T3 sequence (P51178 21-130 limits assumed): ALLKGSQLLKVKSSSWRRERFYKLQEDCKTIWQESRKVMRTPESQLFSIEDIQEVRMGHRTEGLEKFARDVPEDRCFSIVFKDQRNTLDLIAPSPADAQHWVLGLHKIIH
Description: as §2, with “1, an L1 sensor chip was coated with POPC/POPS/PtdIns(4,5)P2 (77:20:3) LUVs.” left out
LUVs were prepared by extrusion using a 100 nm-pore membrane. GUVs were prepared by electroformation. The lipid mixture were prepared in chloroform/methanol (3:1) at a total concentration of 0.4 mg/ml, then the lipid solution was spread onto the indium-tin oxide electrode surface and the lipid was dried under vacuum to form a uniform lipid film. Vesicles were grown in a sucrose solution (350 mM) while an electric field (3V, 20 Hz frequency) was applied for 5 hour at room temperature. After 1 to […] of sucrose-loaded GUV solution was added into a well glued onto a coverslip that was placed on the microscope stage. The well contained […] of 20 mM Tris-HCl buffer, pH 7.4, with 0.16 M KCl solution. The diameter of GUVs ranged from 5 to 30 μm.

Kd ([1]; SPR, POPC/POPS/PtdIns(4,5)P2 (77:20:3) LUVs, 20 mM Tris-HCl pH 7.4, 0.16 M KCl, read-out: Kd for PtdIns(4,5)P2): 0.004 µM
affinity for PtdIns(4,5)P2-containing vesicles relative to eENTH ([1]; higher than eENTH): about 3 fold
affinity for PtdIns(4,5)P2-containing vesicles relative to wild type ([1]; higher than the wild type): 12 fold
PtdIns(4,5)P2/PtdIns(3,4,5)P3 selectivity [2]: > 10
enhancement of overall affinity for PtdIns(4,5)P2-containing membranes [3]: ca. 4 fold
Kd (PLCδ-PH (PLCδ PH domain)): 0.18 µM
Compound: CCCCCCCCCCCCCCCC(=O)OC[C@H](COP(=O)(O)O[C@@H]1[C@H](O)[C@H](O)[C@@H](OP(=O)(O)O)[C@H](OP(=O)(O)O)[C@H]1O)OC(=O)CCCCCCCCCCCCCCC [PtdIns(4,5)P2, phosphatidylinositol-4,5-bisphosphate]
